Laboratory results taken from PMC8169650, “Identification of Small Molecule Inhibitors of a Mir155 Transcriptional Reporter in Th17 Cells” (Scientific Reports, 2021).

Columns and labels:
Mir155 reporter = Mir155 reporter Beta-Glo HTS assay (β-gal activity); format: cell-based, mouse; conditions: for EC50: Mus musculus, β-gal signal, 48 h, read-out: EC50, inhibition of Mir155 reporter expression; for EC50 / effect on Mir155 reporter expression: Th17 cells from Mir155 reporter mice; for effect on Mir155 reporter expression: dose response
Description: To develop an assay for the HTS screen, CD4^+ T cells were purified from spleen and lymph nodes of the Mir155 reporter mice. The purified CD4^+ T cells were cultured under Th17 cell-polarizing conditions in twelve well plates following which differentiated Th17 cells were transferred and expanded in six well plates followed by a resting period of 2 days in T cell media (schema depicted in Fig. 1a). We first optimized the cell number to maximize the assay window. To this end, differentiated Th17 cells were plated at different cell densities in the wells of polystyrene 1536-well plates under Th17 polarizing conditions. T cell activation was accomplished using two protocols. In the first protocol, magnetic beads coupled to anti-CD3 and anti-CD28 antibodies (CD3/CD28 microbeads) were added to mediate T cell activation as induction of MiR155 expression requires engagement of the TCR CD3 complex (signal 1) plus the co-stimulatory molecule CD28 (signal 2). The cells along with the beads were incubated at 37 °C, 5% CO2 for 48 h and, subsequently, high-throughput quantitation of β-gal activity was performed after 30 min of incubation using the Beta-Glo Assay system (Fig. 1b).
The NPC collection was screened at seven concentrations (top concentration 46 µM; 1:5 dilution thereafter) and drug response curves for the compounds were generated using our qHTS curve class classification algorithm as described above.
CD4^+ cells were purified from spleens and lymph nodes of Mir155 reporter mice as described above. Briefly, single cell suspensions were prepared by mechanical disruption followed by lysis of red blood cells with 0.83% ammonium chloride. CD4^+ T cells were either isolated by FACS sorting (BD FACS Aria) or were positively selected using magnetic CD4 microbeads (Miltenyi Biotec)[43]. 1 million CD4^+ cells/well were cultured in anti-CD3/CD28 (1 µg/ml each) coated 12 well plates under Th17 polarization conditions following which differentiated Th17 cells were transferred and expanded in six well plates followed by a resting period of 2 days in T cell media. A cocktail containing 10 ng/ml each of IL-6, IL-1 β, IL-21 and TGF-β (0.5 ng/ml) and IFNγ, IL-4, IL-12 neutralizing antibodies (10 μg/ml) was used for the Th17 polarizing conditions. For the HTS assay, 2000 differentiated Th17 cells/well in Th17 polarizing media were added to Greiner-one high base solid bottom white tissue culture treated 1536 well plates (catalog # 789173-F) using a small cassette and a Multidrop Combi dispenser (Thermo Fisher Scientific Inc.,Waltham, MA). Compounds were added using a Kalypsys pintool (Columns 5–48) and magnetic beads coupled to anti-CD3 and anti-CD28 (CD3/CD28 microbeads) were added to mediate T cell activation. CD3/CD28 microbeads were not added to first 2 columns and those wells served as basal control. DMSO was added to columns 3 and 4 and served as 100% signal. The plates were incubated for 48 h at 37 °C, 5% CO2, 95% humidity covered with low evaporation stainless steel lids from Kalypsys. After 48 h of incubation, 5 µl of Beta-Glo reagent (Beta Glo Assay System, Promega) was added using a Bioraptor Flying Reagent Dispenser (Aurora Discovery-BD) and the plates were incubated at room temperature for 30 min. Luminescence signal was captured using a 10 s exposure with a ViewLux (Perkin Elmer) containing a luminescent filter. Beta Glo reagent consists of Beta Glo substrate and buffer that are combined to form the Beta Glo reagent (Beta Glo Assay System, Promega).

[1] = system: IL-17 production in Th17 cells; test: Intracellular IL-17 flow cytometric cytokine assay under Th17 polarization; format: cell-based, mouse; conditions: for IL-17+ cells, gated on live CD4+CD44high cells / inhibition at 20 µM: 20 µM; for IL-17+ cells, gated on live CD4+CD44high cells: DMSO 32% (panel b), 36.8% (panel c); for inhibition at 20 µM: Mus musculus, 96 h, day 4, C57BL/6 CD4+ T cells, read-out: down-regulation (inhibition) of IL-17 production compared to control
Description: (§1) It has been previously shown that IL-17 production is defective in miR-155 deficient cells. […] To test the hit compounds for IL-17 downregulation, we purified naive CD4^+ T cells from C57BL/6 mice and cultured them under Th17 polarization condition. Small molecules at multiple concentrations (20 µM, 10 µM and 5 µM) were added 18 h post-plating of CD4^+ T cells on anti-CD3/CD28 coated plates and again on day 2 of culture (schema depicted in Fig. 3a).
(§2) Spleens and lymph nodes were harvested from mice and single cell suspensions were prepared by mechanical disruption followed by lysis of red blood cells with 0.83% ammonium chloride. CD4^+ T cells were either isolated by FACS sorting (BD FACS Aria) or were positively selected using magnetic CD4 microbeads (Miltenyi Biotec). For intracellular IL-17 quantitation by flow cytometry, 0.25 million cells/ well were plated in anti-CD3/CD28 (1 µg/ml) coated 48 well plates. A cocktail containing 10 ng/ml each of IL-6, IL-1 β, IL-21 and TGF-β (0.5 ng/ml) and IFNγ, IL-4, IL-12 neutralizing antibodies (10 μg/ml) was used for the Th17 polarizing conditions. All recombinant cytokines were purchased from R&D Systems and crosslinking antibodies were purified from hybridomas (Harlan). Cells were treated with small molecules at indicated concentrations at 18 h and 48 h of cell plating. On day 4 of the culture, cells were stimulated with 20 ng/ml of phorbol 12-myristate 13-acetate (PMA) and ionomycin (1 μg/ml) for 4 h in the presence of brefeldin A. Following stimulation, cells were stained with fixable viability dye (eBioscience) and surface stained for CD44 and CD4, permeabilized using cytofix/cytoperm (BD biosciences) and subsequently, stained for intracellular IL-17. Foxp3/Transcription Factor Staining kit (eBioscience) kit was used for intranuclear staining of RORγt. Samples were acquired on BD Fortessa and analyzed using Flowjo (Tree star Inc).

Th17 cells = test: RNA-seq of CD4+ T cells under Th17 polarizing conditions; format: cell-based, mouse; conditions: 20 µM, 24 h, vs DMSO
Source text: The (E)-1-(phenylsulfonyl)-2-styryl-1H-benzo[d] imidazoles were identified from the diversity library and the target for these compounds is not known. We investigated the possible molecular mechanism(s) regulating impaired Th17 cell function using whole-transcriptome RNA-sequencing (RNA-seq) of CD4^+ T cells treated with NCGC00108246 or NCGC00108250 (representative imidazole compounds) under Th17 polarizing conditions. We performed differential gene expression to compare the two imidazole-treated conditions (n = 6) to DMSO (n = 3). Imidazole treated samples (NCGC00108246 or NCGC00108250) had similar gene expression profiles and clustered together, and distinct from DMSO. […] We confirmed down-regulation of IL-17 cytokines (IL-17a and IL-17f.) in NCGC00108246 or NCGC00108250 treated cells (Fig. 4a,b). […] In alignment with the protein data, transcript levels for Th17 cell-specific transcription factor RORγt encoded by Rorc gene were not affected after treatment with imidazoles (Fig. S2b,c).
For RNA seq, T cells were treated with compounds for 24 h in Th17 polarizing conditions, following which RNA was extracted using the mirVana kit (Applied Biosystems). Qubit RNA broad range assay in the Qubit Flurometer (Invitrogen) was used to measure RNA concentration, following which RNA integrity was determined with Eukaryote Total RNA Nano Series II ChIP on a 2100 Bioanalyzer (Agilent). TruSeq RNA sample preparation kit (Illumina) was used to prepare RNA-seq libraries. Briefly, oligo-dT purified mRNA was fragmented and subjected to first and second strand cDNA synthesis. cDNA fragments were blunt ended, ligated to Illumina adaptors and PCR amplified to enrich for the fragments ligated to adaptors. The resulting cDNA libraries were verified and quantified on Agilent Bioanalyzer and single-end 96 cycle sequencing was conducted (Illumina) as previously described.
For data analysis, RNA-seq reads were aligned to the mm10 genome and the GRCm38 v87 transcriptome with STAR v2.5.2a[44] using default parameters and output tracks normalized by RPM (–outWigNorm RPM). RSEM v1.3[45] was used to calculate gene counts and TPMs on the transcriptome-aligned reads as previously described[16],[43]. Differential expression analysis was performed in R v3.5.2, using DESeq2[46] v1.22.2, resulting in 2328 differentially expressed genes when contrasting NCGC00108246 or NCGC00108250 treated samples versus DMSO controls. […] The volcano plot was generated with the R package (R-project.org at https://www.R-project.org/), Enhanced Volcano. Heatmaps were generated with the R package, pheatmap. Integrative Genomics Viewer v2.4.19[48] was used for visualization of normalized bigwig tracks.

CD4+ T cells = test: Viability dye and CD44 activation staining in the IL-17 flow cytometric assay; format: cell-based; conditions: Fig. S2a
Description: as §1, §2

[2] = fresh batch compared to older batch

| EC50 (Mir155 reporter) [nM] | SMILES | IL-17+ cells, gated on live CD4+CD44high cells [1] [%] | inhibition at 20 µM [1] [%] | effect on Mir155 reporter expression (Mir155 reporter) | also measured |
| --- | --- | --- | --- | --- | --- |
| 12600 | CCOc1ccc(/C=C/c2nc3ccccc3n2S(=O)(=O)c2ccc(Br)cc2)cc1 [NCGC00108244] | 30.4 | 17 | – | – |
| 2200 | CSc1ccc(/C=C/c2nc3ccccc3n2S(=O)(=O)c2ccc(Br)cc2)cc1 [NCGC00108248, (E)-1-((4-bromophenyl)sulfonyl)-2-(4-(methylthio)styryl)-1H-benzo[d] imidazole] | 3.8 | 90 | – | activity in miR-155 HTS assay, solutions of fresh powders (Mir155 reporter; [2]): inactive or demonstrated attenuated activity; inhibition of IL-17, solutions of fresh powders [1, 2]: not potent inhibitors of IL-17 |
| 2000 | CSc1ccc(/C=C/c2nc3ccccc3n2S(=O)(=O)c2cccc(Cl)c2)cc1 [NCGC00108250] | 4.4 | 88 | – | IL-17a and IL-17f transcripts (Th17 cells): down-regulation; IL-22 and IL-23r transcripts (Th17 cells): down-regulated; live cells (fixable viability dye, Live-dead) (CD4+ T cells; DMSO 77.4% / 80.6%): 80.5%; CD4+ CD44+ cells (CD4+ T cells; DMSO 97.2% / 98.2%): 96.1%; IL-17 / RORγt plot, percent cells, gated on live CD4+CD44high ([1]; Fig. S2b, DMSO 32.4% / 21.2%): 3.2% |
| 600 | Cc1ccc(/C=C/c2nc3ccccc3n2S(=O)(=O)c2cccc(Cl)c2)cc1 [NCGC00140605] | 13.1 | 65 | – | – |
| 3700 | Cc1ccc(/C=C/c2nc3ccccc3n2S(=O)(=O)c2ccc(Br)cc2)cc1 [NCGC00140607] | 16.6 | 55 | – | – |

The remaining lines, values behind:

| SMILES | EC50 (Mir155 reporter) [nM] | IL-17+ cells, gated on live CD4+CD44high cells [1] [%] | inhibition at 20 µM [1] [%] | effect on Mir155 reporter expression (Mir155 reporter) | also measured |
| --- | --- | --- | --- | --- | --- |
| CCOc1ccc(/C=C/c2nc3ccccc3n2S(=O)(=O)c2cccc(Cl)c2)cc1 [NCGC00108246] | 3500 | 3.1 | 90 | – | IL-17a and IL-17f transcripts (Th17 cells): down-regulation; IL-22 and IL-23r transcripts (Th17 cells): down-regulated |
| CSc1ccc(/C=C/c2nc3ccccc3[nH]2)cc1 [NCGC00507974, (E)-2-(4-(methylthio)styryl)-1H-benzo[d] imidazole] | 1200 | – | – | dose dependent reduction of Mir155 reporter expression | effect on IL-17 production ([1]; C57BL/6 CD4+ T cells, Th17 polarization): dose-dependent inhibition of IL-17 production |
| c1ccc(-c2ccc(C(c3ccccc3)n3ccnc3)cc2)cc1 (stereo not shown) [bifonazole, reference compound] | – | – | – | either modest down-regulators or did not affect Mir155 reporter expression | – |
| OC(Cn1cncn1)(Cn1cncn1)c1ccc(F)cc1F [fluconazole, reference compound] | – | – | – | either modest down-regulators or did not affect Mir155 reporter expression | – |
| CC(=O)N1CCN(c2ccc(OCC3COC(Cn4ccnc4)(c4ccc(Cl)cc4Cl)O3)cc2)CC1 (stereo not shown) [ketoconazole, reference compound] | – | – | – | either modest down-regulators or did not affect Mir155 reporter expression | – |
| Clc1cccc(C(c2ccc3[nH]cnc3c2)n2ccnc2)c1 (stereo not shown) [liarozole, reference compound] | – | – | – | either modest down-regulators or did not affect Mir155 reporter expression | – |
